Measurements reported in ChEMBL document CHEMBL5154688, “Design, Synthesis, and Characterization of I-BET567, a Pan-Bromodomain and Extra Terminal (BET) Bromodomain Oral Candidate” (J Med Chem, 2022).
Calls of active or inactive are those of the source. No cut-off for these calls is given here.

How the values were obtained:
[1] = biological target: T1, Bromodomain-containing protein 4 (Homo sapiens, UniProt O60885); assay: Inhibition of BRD4 BD2 (unknown origin) incubated for 30 mins in presence of fluorescent ligand by TR-FRET method
[2] = Artificial membrane permeability of the compound; type: ADME; settings: PAMPA; read-out: permeability
[3] = biological target: Voltage-gated inwardly rectifying potassium channel KCNH2 (Homo sapiens, UniProt Q12809); assay: Inhibition of hERG; type: toxicity
[4] = Unbound clearance in Beagle dog blood at 3 mg/kg, po or 1.0 mg/kg, iv by LC-MS/MS analysis; type: ADME, organism-based, Canis lupus familiaris; settings: in vivo
[5] = Renal clearance in Beagle dog at 3 mg/kg, po or 1.0 mg/kg, iv by LC-MS/MS analysis; type: ADME, organism-based, Canis lupus familiaris; settings: in vivo
[6] = Terminal half life in Wistar Han rat blood at 3 mg/kg, po or 1.3 mg/kg, iv measured upto 24 hrs by LC-MS/MS analysis; type: ADME, organism-based; settings: read-out: beta t1/2 (converted)
[7] = Unbound fraction in Wistar Han rat blood at 3 mg/kg, po or 1.3 mg/kg, iv measured upto 24 hrs by LC-MS/MS analysis; type: ADME, organism-based
[8] = Renal clearance in Wistar Han rat assessed as ratio/proportion of renal elimination to total clearance at 3 mg/kg, po or 1.3 mg/kg, iv measured upto 24 hrs by LC-MS/MS analysis; type: ADME, organism-based; settings: in vivo
[9] = biological target: T2, Bromodomain-containing protein 2 (Homo sapiens, UniProt P25440); assay: Binding affinity to BRD2 BD1 (unknown origin) assessed as dissociation constant
[10] = biological target: T2, Bromodomain-containing protein 2; assay: Binding affinity to BRD2 BD2 (unknown origin) assessed as dissociation constant
[11] = biological target: T3, Bromodomain-containing protein 3 (Homo sapiens, UniProt Q15059); assay: Binding affinity to BRD3 BD1 (unknown origin) assessed as dissociation constant
[12] = biological target: T3, Bromodomain-containing protein 3; assay: Binding affinity to BRD3 BD2 (unknown origin) assessed as dissociation constant
[13] = biological target: T1, Bromodomain-containing protein 4; assay: Binding affinity to BRD4 BD2 (unknown origin) assessed as dissociation constant
[14] = biological target: T4, Bromodomain testis-specific protein (Homo sapiens, UniProt Q58F21); assay: Binding affinity to BRDT BD1 (unknown origin) assessed as dissociation constant
[15] = biological target: T4, Bromodomain testis-specific protein; assay: Binding affinity to BRDT BD2 (unknown origin) assessed as dissociation constant
[16] = biological target: Histone acetyltransferase p300 (Homo sapiens, UniProt Q09472); assay: Binding affinity to EP300 (unknown origin) assessed as dissociation constant
Mus musculus = assay: Antiinflammatory activity in KLH-TNP-induced T-cell dependent immunization CD-1 mouse model assessed as reduction in circulating IgG1 at 30 mg/kg, po administered daily for 14 days followed by administration of KLH-TNP after 1 hr; type: functional; settings: CD-1, T-cell, 336 h, time 14 day
[17] = Cmax in KLH-TNP-induced T-cell dependent immunization CD-1 mouse model at 30 mg/kg, po administered every other day for 14 days; type: ADME, organism-based; set-up: dose 30 mg/kg, time 14 day, route po; settings: in vivo
[18] = AUC(0 to 72 hrs) in KLH-TNP-induced T-cell dependent immunization CD-1 mouse model at 30 mg/kg, po administered daily for 14 days; type: ADME, organism-based; set-up: dose 30 mg/kg, time 14 day, route po; settings: in vivo
[19] = AUC(0 to 72 hrs) in KLH-TNP-induced T-cell dependent immunization CD-1 mouse model at 30 mg/kg, po administered every other day for 14 days; type: ADME, organism-based; set-up: dose 30 mg/kg, time 14 day, route po; settings: in vivo
[20] = AUC(0 to 72 hrs) in KLH-TNP-induced T-cell dependent immunization CD-1 mouse model at 30 mg/kg, po administered every third day for 14 days; type: ADME, organism-based; set-up: dose 30 mg/kg, time 14 day, route po; settings: in vivo
[21] = Antiproliferative activity against human NMC 11060 cells assessed as inhibition of proliferation; type: functional, cell-based; settings: NUT midline carcinoma
NUT midline carcinoma = assay: Antineoplastic activity against human NMC 11060 cells xenografted in SCID mouse assessed as reduction in tumor growth at 3 to 30 mg/kg, po for 20 days; type: functional, organism-based; settings: dose 3-30 mg/kg, time 20.0 day
[22] = Unbound Cmax in SCID mouse xenografted with human NMC 11060 cells at 3 to 30 mg/kg, po for 20 days; type: ADME, organism-based; settings: in vivo, 480 h, dose 3-30 mg/kg, time 20 day
[23] = Unbound AUC(0 to 24 hrs) in SCID mouse xenografted with human NMC 11060 cells at 3 to 30 mg/kg, po for 20 days; type: ADME, organism-based; settings: in vivo, 480 h, dose 3-30 mg/kg, time 20 day
[24] = Antineoplastic activity against human NMC 11060 cells xenografted in SCID mouse assessed as reduction in tumor volume at 3 to 30 mg/kg, po for 20 days; type: functional, NUT midline carcinoma; set-up: scale not given: the % may be the effect or the level left; settings: dose 3-30 mg/kg, time 20 day
[25] = Toxicity in KLH-TNP-induced T-cell dependent immunization CD-1 mouse model assessed as effect on body weight at 30 mg/kg, po administered daily for 14 days; type: organism-based; settings: in vivo, 336 h, time 14 day
[26] = Toxicity in KLH-TNP-induced T-cell dependent immunization CD-1 mouse model assessed as tolerability at 30 mg/kg, po administered daily for 14 days; type: organism-based; settings: in vivo, 336 h, time 14 day
[27] = Toxicity in SCID mouse xenografted with human NMC 11060 cells assessed as loss of body weight at 30 mg/kg, po for 20 days; type: organism-based; settings: in vivo, 480 h, time 20 day
[28] = Antineoplastic activity against human NMC 11060 cells xenografted in SCID mouse assessed as reduction in tumor volume at 10 mg/kg, po for 20 days measured at 10 days of post randomization relative to control; type: functional; settings: NMC 11060 cell, 480 h, time 20 day
[29] = Antineoplastic activity against human NMC 11060 cells xenografted in SCID mouse assessed as reduction in tumor volume at 10 mg/kg, po for 20 days measured at 13 days of post randomization relative to control; type: functional; settings: NMC 11060 cell, 480 h, time 20 day
[30] = Antineoplastic activity against human NMC 11060 cells xenografted in SCID mouse assessed as reduction in tumor volume at 10 mg/kg, po for 20 days measured at 15 days of post randomization relative to control; type: functional; settings: NMC 11060 cell, 480 h, time 20 day
[31] = Antineoplastic activity against human NMC 11060 cells xenografted in SCID mouse assessed as reduction in tumor volume at 10 mg/kg, po for 20 days measured at 17 days of post randomization relative to control; type: functional; settings: NMC 11060 cell, 480 h, time 20 day
[32] = Antineoplastic activity against human NMC 11060 cells xenografted in SCID mouse assessed as reduction in tumor volume at 30 mg/kg, po for 20 days measured at 10 days of post randomization relative to control; type: functional; settings: NMC 11060 cell, 480 h, time 20 day
[33] = Antineoplastic activity against human NMC 11060 cells xenografted in SCID mouse assessed as reduction in tumor volume at 30 mg/kg, po for 20 days measured at 13 days of post randomization relative to control; type: functional; settings: NMC 11060 cell, 480 h, time 20 day
[34] = Antineoplastic activity against human NMC 11060 cells xenografted in SCID mouse assessed as reduction in tumor volume at 30 mg/kg, po for 20 days measured at 17 days of post randomization relative to control; type: functional; settings: NMC 11060 cell, 480 h, time 20 day
[35] = Antineoplastic activity against human NMC 11060 cells xenografted in SCID mouse assessed as reduction in tumor volume at 30 mg/kg, po for 20 days measured at 20 days of post randomization relative to control; type: functional; settings: NMC 11060 cell, 480 h, time 20 day

T3 sequence (Q15059 whole entry): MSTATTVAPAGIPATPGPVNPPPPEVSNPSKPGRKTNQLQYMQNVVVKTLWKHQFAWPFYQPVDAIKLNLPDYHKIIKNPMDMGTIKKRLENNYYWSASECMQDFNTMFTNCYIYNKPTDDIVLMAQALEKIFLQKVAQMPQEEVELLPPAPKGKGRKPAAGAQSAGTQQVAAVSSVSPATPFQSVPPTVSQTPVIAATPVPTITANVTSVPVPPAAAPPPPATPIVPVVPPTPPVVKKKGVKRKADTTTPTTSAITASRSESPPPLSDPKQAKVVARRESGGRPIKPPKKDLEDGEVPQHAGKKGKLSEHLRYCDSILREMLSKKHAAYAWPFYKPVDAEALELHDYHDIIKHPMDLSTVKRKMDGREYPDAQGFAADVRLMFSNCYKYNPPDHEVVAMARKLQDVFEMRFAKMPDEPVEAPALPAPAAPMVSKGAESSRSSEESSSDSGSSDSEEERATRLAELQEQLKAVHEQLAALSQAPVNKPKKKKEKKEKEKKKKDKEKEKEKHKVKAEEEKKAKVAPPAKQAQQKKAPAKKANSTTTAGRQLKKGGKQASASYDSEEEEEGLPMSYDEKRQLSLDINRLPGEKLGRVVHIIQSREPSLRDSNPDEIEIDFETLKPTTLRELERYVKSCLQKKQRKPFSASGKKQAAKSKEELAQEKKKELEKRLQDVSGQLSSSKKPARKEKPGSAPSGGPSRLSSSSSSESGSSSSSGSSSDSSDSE
T2 sequence (P25440 whole entry): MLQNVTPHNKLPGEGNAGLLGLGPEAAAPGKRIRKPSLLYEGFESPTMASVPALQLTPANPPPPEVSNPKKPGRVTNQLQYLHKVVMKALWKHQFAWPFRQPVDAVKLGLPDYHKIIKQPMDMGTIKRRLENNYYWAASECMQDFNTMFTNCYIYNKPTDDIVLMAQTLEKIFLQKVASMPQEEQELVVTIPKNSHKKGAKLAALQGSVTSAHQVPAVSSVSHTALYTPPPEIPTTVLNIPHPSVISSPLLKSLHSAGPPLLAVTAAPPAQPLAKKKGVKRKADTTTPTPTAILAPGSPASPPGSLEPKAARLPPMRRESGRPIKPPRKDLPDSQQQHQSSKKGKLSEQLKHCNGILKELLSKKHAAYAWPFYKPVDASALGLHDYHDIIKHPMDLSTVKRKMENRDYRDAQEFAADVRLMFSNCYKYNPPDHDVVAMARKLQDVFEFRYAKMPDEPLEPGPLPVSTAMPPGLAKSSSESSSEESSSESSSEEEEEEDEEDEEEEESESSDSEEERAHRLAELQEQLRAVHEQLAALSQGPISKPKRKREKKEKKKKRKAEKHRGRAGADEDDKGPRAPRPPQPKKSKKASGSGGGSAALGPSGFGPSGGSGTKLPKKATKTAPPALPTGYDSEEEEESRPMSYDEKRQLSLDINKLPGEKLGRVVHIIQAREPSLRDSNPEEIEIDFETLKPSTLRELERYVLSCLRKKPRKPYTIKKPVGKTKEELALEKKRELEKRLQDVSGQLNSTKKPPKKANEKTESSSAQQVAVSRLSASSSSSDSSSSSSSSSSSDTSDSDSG
Chain of Histone acetyltransferase p300 (Q09472 whole entry): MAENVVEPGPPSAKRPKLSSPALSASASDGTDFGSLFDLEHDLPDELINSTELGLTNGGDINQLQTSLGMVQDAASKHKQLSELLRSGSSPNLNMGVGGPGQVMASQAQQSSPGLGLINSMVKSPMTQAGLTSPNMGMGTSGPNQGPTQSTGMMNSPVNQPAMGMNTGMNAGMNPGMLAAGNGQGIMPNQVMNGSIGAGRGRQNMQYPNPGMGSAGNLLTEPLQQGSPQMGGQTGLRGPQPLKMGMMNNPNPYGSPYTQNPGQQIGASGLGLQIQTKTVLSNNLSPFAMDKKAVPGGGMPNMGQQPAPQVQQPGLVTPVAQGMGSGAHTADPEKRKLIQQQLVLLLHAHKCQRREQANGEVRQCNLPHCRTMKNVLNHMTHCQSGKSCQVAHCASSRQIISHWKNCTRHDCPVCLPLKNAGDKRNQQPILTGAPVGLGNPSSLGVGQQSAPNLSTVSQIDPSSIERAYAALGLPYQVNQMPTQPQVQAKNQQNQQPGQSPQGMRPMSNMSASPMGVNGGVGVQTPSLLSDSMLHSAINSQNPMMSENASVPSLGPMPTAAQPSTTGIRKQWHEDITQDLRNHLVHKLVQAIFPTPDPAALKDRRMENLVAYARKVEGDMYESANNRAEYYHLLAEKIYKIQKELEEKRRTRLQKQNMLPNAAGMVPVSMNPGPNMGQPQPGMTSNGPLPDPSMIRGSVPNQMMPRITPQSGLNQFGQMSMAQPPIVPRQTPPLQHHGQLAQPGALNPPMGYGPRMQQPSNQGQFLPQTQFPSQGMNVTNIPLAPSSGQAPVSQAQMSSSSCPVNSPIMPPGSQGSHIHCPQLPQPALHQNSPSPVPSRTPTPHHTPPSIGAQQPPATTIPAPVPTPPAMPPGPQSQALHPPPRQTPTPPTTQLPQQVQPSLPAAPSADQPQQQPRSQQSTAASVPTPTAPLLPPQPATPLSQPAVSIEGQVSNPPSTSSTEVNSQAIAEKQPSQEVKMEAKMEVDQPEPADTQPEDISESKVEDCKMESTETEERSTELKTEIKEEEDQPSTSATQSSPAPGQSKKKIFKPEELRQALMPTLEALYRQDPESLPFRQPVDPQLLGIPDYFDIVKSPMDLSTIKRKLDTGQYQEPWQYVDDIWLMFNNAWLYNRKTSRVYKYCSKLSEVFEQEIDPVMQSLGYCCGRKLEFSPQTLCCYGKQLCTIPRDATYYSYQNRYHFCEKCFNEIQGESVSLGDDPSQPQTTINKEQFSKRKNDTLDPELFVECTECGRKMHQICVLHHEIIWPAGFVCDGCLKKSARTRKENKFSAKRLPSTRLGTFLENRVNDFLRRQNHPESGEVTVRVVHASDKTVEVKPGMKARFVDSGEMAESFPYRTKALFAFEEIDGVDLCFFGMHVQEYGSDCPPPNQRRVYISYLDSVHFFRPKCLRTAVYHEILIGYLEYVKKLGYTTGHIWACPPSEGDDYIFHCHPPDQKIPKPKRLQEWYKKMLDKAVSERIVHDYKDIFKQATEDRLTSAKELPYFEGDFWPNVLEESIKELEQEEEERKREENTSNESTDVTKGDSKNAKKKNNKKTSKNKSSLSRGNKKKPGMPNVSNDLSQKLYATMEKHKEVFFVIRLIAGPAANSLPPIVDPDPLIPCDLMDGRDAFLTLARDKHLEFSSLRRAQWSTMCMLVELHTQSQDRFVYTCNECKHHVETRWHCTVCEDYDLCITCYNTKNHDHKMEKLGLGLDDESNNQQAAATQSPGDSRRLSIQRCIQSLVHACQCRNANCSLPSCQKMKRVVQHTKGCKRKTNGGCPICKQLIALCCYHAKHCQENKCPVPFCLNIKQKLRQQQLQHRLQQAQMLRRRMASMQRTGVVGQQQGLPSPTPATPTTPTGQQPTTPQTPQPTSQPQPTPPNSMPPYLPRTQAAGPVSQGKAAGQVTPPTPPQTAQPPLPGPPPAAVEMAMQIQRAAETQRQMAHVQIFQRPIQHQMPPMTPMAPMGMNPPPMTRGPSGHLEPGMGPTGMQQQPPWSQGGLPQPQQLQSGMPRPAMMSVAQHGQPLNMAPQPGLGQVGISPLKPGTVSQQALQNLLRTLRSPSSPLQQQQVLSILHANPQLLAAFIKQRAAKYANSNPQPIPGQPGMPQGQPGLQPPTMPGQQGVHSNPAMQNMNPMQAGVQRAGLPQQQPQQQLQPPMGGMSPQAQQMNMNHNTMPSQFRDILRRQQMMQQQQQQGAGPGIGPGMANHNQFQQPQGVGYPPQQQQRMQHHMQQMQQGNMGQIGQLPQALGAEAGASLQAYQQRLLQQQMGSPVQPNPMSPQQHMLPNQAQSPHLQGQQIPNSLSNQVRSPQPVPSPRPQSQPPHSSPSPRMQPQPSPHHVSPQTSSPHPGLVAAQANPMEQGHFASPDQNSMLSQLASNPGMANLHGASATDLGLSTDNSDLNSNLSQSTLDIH
Chain of Voltage-gated inwardly rectifying potassium channel KCNH2 (Q12809 whole entry): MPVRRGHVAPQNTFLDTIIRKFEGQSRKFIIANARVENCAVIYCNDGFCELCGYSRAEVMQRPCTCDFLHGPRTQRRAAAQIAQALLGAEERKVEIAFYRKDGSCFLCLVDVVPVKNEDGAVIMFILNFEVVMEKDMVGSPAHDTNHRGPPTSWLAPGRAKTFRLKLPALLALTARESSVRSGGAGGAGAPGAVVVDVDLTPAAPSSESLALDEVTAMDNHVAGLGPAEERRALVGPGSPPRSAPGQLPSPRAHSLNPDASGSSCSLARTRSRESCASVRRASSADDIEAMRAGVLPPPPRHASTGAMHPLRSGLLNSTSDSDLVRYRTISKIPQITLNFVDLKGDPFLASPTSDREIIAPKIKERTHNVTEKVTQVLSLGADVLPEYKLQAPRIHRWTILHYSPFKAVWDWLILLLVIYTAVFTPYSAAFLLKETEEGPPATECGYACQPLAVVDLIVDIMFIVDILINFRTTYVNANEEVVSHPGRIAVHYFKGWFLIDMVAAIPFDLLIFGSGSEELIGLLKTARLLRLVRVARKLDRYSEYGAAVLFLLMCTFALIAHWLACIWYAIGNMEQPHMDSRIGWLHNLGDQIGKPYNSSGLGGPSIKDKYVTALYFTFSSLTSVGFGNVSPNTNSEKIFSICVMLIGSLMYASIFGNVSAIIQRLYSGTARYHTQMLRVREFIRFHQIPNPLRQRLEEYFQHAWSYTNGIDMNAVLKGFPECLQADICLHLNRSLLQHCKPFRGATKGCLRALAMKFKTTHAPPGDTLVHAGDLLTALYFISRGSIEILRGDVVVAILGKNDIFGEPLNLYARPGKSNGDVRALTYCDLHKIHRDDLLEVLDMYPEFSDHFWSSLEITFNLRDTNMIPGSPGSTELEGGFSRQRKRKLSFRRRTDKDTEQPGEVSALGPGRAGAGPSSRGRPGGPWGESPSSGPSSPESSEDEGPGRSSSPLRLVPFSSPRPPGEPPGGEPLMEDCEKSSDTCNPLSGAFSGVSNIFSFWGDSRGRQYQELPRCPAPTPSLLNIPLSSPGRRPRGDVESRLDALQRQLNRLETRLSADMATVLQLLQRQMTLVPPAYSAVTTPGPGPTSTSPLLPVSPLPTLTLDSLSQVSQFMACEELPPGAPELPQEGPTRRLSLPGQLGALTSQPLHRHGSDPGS

- IC50 [1]: 63.1 nM
- Papp [2]: 6.8 ×10⁻⁶ cm/s
- CL free [4]: 20 mL/min/kg
- CL renal [5]: 6.9 mL/min/kg
- half-life [6]: 1.6 h
- fraction unbound at 24 h [7]: 0.23
- Ratio [8]: 28%
- Kd [9]: 39.8 nM
- Kd [10]: 7.94 nM
- Kd [11]: 25.1 nM
- Kd [12]: 6.31 nM
- Kd [13]: 5.01 nM
- Kd [14]: 25.1 nM
- Kd [15]: 25.1 nM
- Kd [16]: 2510 nM
- Cmax [17]: 8.5 µM
- AUC at 336 h [18]: 103 µM·h
- AUC at 336 h [19]: 69 µM·h
- AUC at 336 h [20]: 34 µM·h
- fCmax [22]: 2 µM
- fAUC [23]: 10 µM·h
Compound: CC(=O)N1c2ccc(C(N)=O)cc2[C@H](Nc2ncc(Cl)cn2)C[C@@H]1C
- IC50 [3]: > 50100 nM
- inhibition in vivo at 30 mg/kg (Mus musculus): 98%
- IC50 [21]: 630 nM
- Activity (NUT midline carcinoma): Active
- Activity [24]: >50%
- Activity [25]: Non-Toxic
- Activity [26]: Non-Toxic
- Activity [27]: 19.6%
- inhibition in vivo at 10 mg/kg [28]: 69%
- inhibition in vivo at 10 mg/kg [29]: 56%
- inhibition in vivo at 10 mg/kg [30]: 65%
- inhibition in vivo at 10 mg/kg [31]: 59%
- inhibition in vivo at 30 mg/kg [32]: 83%
- inhibition in vivo at 30 mg/kg [33]: 88%
- inhibition in vivo at 30 mg/kg [34]: 93%
- inhibition in vivo at 30 mg/kg [35]: 93%
